In general, IC50 refers to the concentration that inhibits the measured activity by half. What is called GI50 is the concentration at which growth is held to half of that of the control.

Where “and” joins values, the source holds several entries; their conditions need not be identical. Identical values can stand only once.

What all share (type): cell-based
Series [1] deals with T1, AR-LBD and TIF2 (Homo sapiens, UniProt P10275).
T1 construct: AR-LBD amino acids 658–919 expressed as a fusion protein with Gal4-DBD; expressed in transfected cells; host or cells: HEK 293
T1 sequence (P10275 658-919): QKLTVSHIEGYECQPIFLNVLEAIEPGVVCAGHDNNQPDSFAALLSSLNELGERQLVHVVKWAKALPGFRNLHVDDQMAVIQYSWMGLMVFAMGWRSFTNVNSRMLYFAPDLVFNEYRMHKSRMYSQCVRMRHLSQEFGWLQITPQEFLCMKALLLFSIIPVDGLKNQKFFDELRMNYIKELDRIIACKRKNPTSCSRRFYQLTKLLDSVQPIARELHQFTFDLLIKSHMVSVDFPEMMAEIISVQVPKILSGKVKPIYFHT
The series is described as follows: TIF2 mammalian 2-hybrid (M2H) assay. The settings on record: for IC50: HEK 293 cells, 25 nM DHT, 27 h compound exposure, read-out: M2H AR-TIF2 CoA Recruitment IC50. The source says:
The 5xGAL4-TATA-luciferase reporter plasmid was a gift from Dr. Richard Maurer from the Oregon Health and Science University, and constructs pGAL4-hAR-658–919 (AR-LBD amino acids 658–919 expressed as a fusion protein with Gal4-DBD), pVP16-SRC1 (full--length SRC1 expressed as a fusion with VP16 activation domain) and pVP16-Empty vector were kindly provided to us by Dr. Elizabeth Wilson, from UNC Chapel Hill. pVP16-TIF2 was generated as described previously. HEK 293 cells were transiently co-transfected with 5 ng of pGal4-AR-LBD, 10 ng of either pVP16-TIF2 or pVP16-SRC1, and 20 ng of the 5xGal4-TATA-Luc reporter as described previously. HEK 293 cells were bulk co-transfected with the three plasmids that had been individually incubated with Fugene 6 at a 3:1 ratio for 25 min at room temperature (RT) in serum free media (SFM) and then combined with HEK 293 cells that were suspended in DMEM (Cellgro10013CV) with 2 mM L-glutamine (Invitrogen) that was supplemented with 10% fetal bovine serum, and 5000 cells in a volume of 40 μL were seeded into the wells of white opaque 384-well assay plates (Greiner Bio-one, #781080) and cultured overnight at 37 °C, 5% CO2, and 95% humidity. […] 25 μL of BrightGlo® reagent was added to the plate and the relative luminescence units (RLUs) were captured on a SpectraMax M5e microtiter plate reader (Molecular Devices, LLC, San Jose, CA).

Series [2] is described as follows: PC-3-ARV7-GFP viability counter screen. The note with it: human, PC3-AR-V7-GFP cells; cytotoxicity counter screen; read-out: PC-3-ARV7-GFP viability CS GI50.
Series [3] concerns U-2 OS cells. As to the kind of experiment: AR-TIF2 PPIB cell loss (Hoechst stained nuclei). The note with it: 4.5 h compound exposure. The method, then:
The AR-TIF2 PPIB HCS assay was performed in U-2 OS osteosarcoma cells as described previously. Briefly, U-2 OS cells were coinfected with recombinant adenovirus biosensor expression constructs and seeded at 2500 cells per well in 384-well collagen-coated microplates (Greiner BioOne #781956) and plates were incubated overnight at 37°C in 5% CO2 and 95% humidity. […] After the appropriate time, assay plates were fixed by transfer of 50 μL of pre-warmed (37°C) 7.4% formaldehyde and 2 μg/mL Hoechst 33342 in PBS and incubation at room temperature for 30 min. Liquid was aspirated, plates were washed twice with 85 μL PBS, leaving the final wash in the plate. Plates were sealed with adhesive aluminum plate seals, and fluorescent images of three fields of view were acquired in the DAPI (Hoechst stained nuclei), FITC (TIF2-GFP) and Texas Red (AR-RFP) channels on an ImageXpress Micro (IXM) automated HCS platform (Molecular Devices LLC, Sunnyvale, CA) using a 10X Plan Fluor 0.3 NA objective. Images were analyzed using the Translocation Enhanced (TE) image analysis module of the MetaXpress software as described previously.

In series [4] the target is T2, full length AR (Homo sapiens, UniProt P10275, T878A).
T2 construct: DHT-induced full length AR directed TA; endogenous in cells; host or cells: C4–2 castration resistant prostate cancer cells
T2 sequence (P10275 1-920 T878A): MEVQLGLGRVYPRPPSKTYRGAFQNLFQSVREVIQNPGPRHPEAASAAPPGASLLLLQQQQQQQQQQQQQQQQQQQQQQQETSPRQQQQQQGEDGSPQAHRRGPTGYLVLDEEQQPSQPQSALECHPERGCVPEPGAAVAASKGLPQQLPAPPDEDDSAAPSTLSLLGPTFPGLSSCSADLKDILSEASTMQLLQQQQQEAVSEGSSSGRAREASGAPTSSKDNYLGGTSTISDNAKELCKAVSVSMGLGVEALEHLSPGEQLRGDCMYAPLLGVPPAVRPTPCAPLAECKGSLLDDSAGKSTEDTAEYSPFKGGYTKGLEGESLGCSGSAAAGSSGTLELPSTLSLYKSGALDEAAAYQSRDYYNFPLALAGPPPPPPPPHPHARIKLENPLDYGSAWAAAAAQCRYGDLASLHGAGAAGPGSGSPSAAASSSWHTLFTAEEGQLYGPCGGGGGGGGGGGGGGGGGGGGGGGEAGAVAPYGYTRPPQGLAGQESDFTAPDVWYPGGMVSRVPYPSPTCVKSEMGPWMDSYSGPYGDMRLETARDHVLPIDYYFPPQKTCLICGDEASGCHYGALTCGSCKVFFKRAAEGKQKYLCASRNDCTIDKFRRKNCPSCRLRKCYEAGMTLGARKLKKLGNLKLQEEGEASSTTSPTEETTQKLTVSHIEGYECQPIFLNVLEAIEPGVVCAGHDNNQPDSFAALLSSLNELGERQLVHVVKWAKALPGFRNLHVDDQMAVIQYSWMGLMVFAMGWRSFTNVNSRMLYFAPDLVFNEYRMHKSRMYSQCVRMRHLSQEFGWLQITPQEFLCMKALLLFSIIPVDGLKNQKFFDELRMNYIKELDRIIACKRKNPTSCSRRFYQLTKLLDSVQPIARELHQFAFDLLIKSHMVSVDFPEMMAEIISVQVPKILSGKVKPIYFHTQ
As to the kind of experiment: PSA-6.1 luciferase reporter assay in C4–2 CRPC cells. The settings on record: C4–2 cells; 50 nM DHT; 24 h; read-out: C4–2 PSA6.1-Luc Reporter IC50. As for the experimental part:
The PSA-6.1-Luc luciferase reporter plasmid was provided by Dr. Zhou Wang in the Urology department of the University of Pittsburgh Cancer Institute. The PSA-6.1-Luc reporter is controlled by a fragment of the PSA promoter that contains at least three AREs. The PSA-6.1-Luc plasmid (12 ng/well) was combined with Fugene 6 at a ratio 6:1 in SFM and incubated for 25 min at room temperature before being combined with C4–2 cells suspended in RPMI 1640 media containing 1% penicillin-streptomycin, 1% L-glutamine, and 10% FBS. Transfected cells were then seeded into white opaque 384-well assay plates (Greiner Bio-one, #781080) at 6000 cells per well in a volume of 30 μL and incubated in 5% CO2, 37 °C, and 95% humidity for 24 h.
On the technique in general: In a reporter assay the amount or activity of a reporter protein is the signal.

With `Cc1ccccc1-c1cc(O)c2c(c1)CN(c1nc(C(N)=O)cs1)CCO2` [S1–1], the IC50 in series [1] is 5.77 µM; in series [4], 17.1 µM. In addition, the GI50 in series [2] is over 100 µM. Also, the “AR-TIF2 PPIB Cell Loss” value in series [3] is over 100 µM.

As to `Cc1ccccc1-c1cc(O)c2c(c1)CN(c1nccs1)CCO2` [S1–3], the IC50 in series [1] came to 7.46 µM; in series [4], 29.7 µM. The “AR-TIF2 PPIB Cell Loss” value in series [3] was over 100 µM.

Consider `Cc1nsc(NC(=O)N2CCC(Sc3ccccc3C)CC2)n1` [S2–6], for which the IC50 in series [1] was 0.08 µM; in series [4], 2 µM and 2.3 µM. Besides, the “CoA selectivity, lower IC50 for TIF2 than SRC1” value in series [1] (M2H assays) was ~ 5 fold. In addition, the GI50 in series [2] was over 100 µM. In series [3], the “AR-TIF2 PPIB Cell Loss” value is over 100 µM.

As to `Cc1c(-c2ccccc2F)[nH]c2ccc(CNC(=O)CCc3cn[nH]c3)cc12` [S3–11], the IC50 turned out to be 6.38 µM in series [1] and 9 µM in series [4]. For the same compound, in series [2], the GI50 was over 100 µM. Moreover, the “AR-TIF2 PPIB Cell Loss” value in series [3] is over 100 µM.

With `Cc1c(-c2ccccc2F)[nH]c2ccc(CNC(=O)CCc3cnccn3)cc12` [S3–12], the IC50 came to 5.44 µM in series [1] and 7.7 µM in series [4]. The GI50 in series [2] was over 100 µM. In addition, the “AR-TIF2 PPIB Cell Loss” value in series [3] was over 100 µM.

Consider `CC(=O)NCCC(=O)NCc1ccc2[nH]c(-c3ccccc3F)c(C)c2c1` [S3–13], for which the IC50 in series [1] came to 18 µM; in series [4], 58.5 µM. Also, the GI50 in series [2] is over 100 µM. The “AR-TIF2 PPIB Cell Loss” value in series [3] is over 100 µM.

Turning to `Cc1c(-c2ccccc2F)[nH]c2ccc(CNC(=O)c3ccc(CO)o3)cc12` [S3–14], the IC50 in series [1] was determined as 2.43 µM; in series [4] it was 10.8 µM. Further, the GI50 in series [2] was over 100 µM. The “AR-TIF2 PPIB Cell Loss” value in series [3] was over 100 µM.

As to `Cc1c(-c2ccc(F)cc2)[nH]c2ccc(CNC(=O)c3ccc(CO)o3)cc12` [S3–15], the figures for the 50% inhibitory concentration (IC50) in series [1] and in series [4] were 3.32 µM and 7 µM, respectively. Besides, the GI50 in series [2] was over 100 µM. In series [3], the “AR-TIF2 PPIB Cell Loss” value is over 100 µM.

The values above are taken from article PMC12366525, “Characterization of allosteric modulators that disrupt androgen receptor co-activator protein-protein interactions to alter transactivation–Drug leads for metastatic castration resistant prostate cancer” (SLAS discovery : advancing life sciences R & D, 2023).
